In test [1] the target is T1, Kappa-type opioid receptor (Homo sapiens, UniProt P41145). Put plainly: SAR analysis of small molecule antagonists of the kappa opioid receptor via a luminescent beta-arrestin assay - Set 3. [Related pubchem assays (depositor defined):AID1777, AID1778, AID1785, AID1786, AID1966, AID2133, AID2136, AID2285, AID2495]. It counts as functional.
The target in test [2] is T2, Mu-type opioid receptor (Homo sapiens, UniProt P35372). Put plainly: SAR Analysis of Antagonists of the MOR Receptor using an Image-Based Assay - Set 3. [Related pubchem assays (depositor defined):AID1777, AID1785, AID1786, AID1966, AID2133, AID2136, AID2284, AID2285, AID2420]. It counts as functional.
T2 sequence (P35372 whole entry): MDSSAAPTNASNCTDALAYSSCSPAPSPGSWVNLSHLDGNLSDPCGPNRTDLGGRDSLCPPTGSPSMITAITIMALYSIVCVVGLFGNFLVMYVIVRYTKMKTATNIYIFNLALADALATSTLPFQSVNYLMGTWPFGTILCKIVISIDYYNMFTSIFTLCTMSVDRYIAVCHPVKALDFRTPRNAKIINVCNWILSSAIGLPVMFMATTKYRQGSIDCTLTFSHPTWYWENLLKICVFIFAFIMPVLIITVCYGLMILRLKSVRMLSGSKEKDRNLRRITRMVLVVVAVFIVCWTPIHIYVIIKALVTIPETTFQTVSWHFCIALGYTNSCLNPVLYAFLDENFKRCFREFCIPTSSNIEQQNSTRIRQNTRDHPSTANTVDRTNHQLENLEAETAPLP
The target in test [3] is T3, Delta-type opioid receptor (Homo sapiens, UniProt P41143). Put plainly: SAR Analysis of Antagonists of the DOR Receptor using an Image-Based Assay - Set 3. [Related pubchem assays (depositor defined):AID1777, AID1785]. It counts as functional.
T3 sequence (P41143 whole entry): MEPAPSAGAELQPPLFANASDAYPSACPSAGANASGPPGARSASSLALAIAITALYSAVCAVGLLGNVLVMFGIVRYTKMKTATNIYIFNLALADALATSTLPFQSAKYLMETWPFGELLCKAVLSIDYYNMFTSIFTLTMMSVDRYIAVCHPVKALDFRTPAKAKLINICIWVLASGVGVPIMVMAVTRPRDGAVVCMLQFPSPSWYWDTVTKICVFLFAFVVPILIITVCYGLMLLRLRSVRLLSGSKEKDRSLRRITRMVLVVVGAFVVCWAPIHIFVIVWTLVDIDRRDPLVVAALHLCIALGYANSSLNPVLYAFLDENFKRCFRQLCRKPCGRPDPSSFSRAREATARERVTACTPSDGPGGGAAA
The target in test [4] is T1, Kappa-type opioid receptor. Put plainly: SAR analysis of Antagonists of the Kappa Opioid Receptor (KOR) using an Image-Based Assay - Set 4. [Related pubchem assays (depositor defined):AID1777, AID1785]. It counts as functional.
A short description of test [5]: non-specific 3'UTR reporter inhibition in Clone20-Shn3RL – cell-based, Renilla luciferase, cherry-picked, counter-screen for Shn3 inhibitor project, dose response (AID 624133). It counts as functional.
For test [6], the target named is T4, Zinc finger protein mex-5 (Caenorhabditis elegans, UniProt Q9XUB2).
T4 sequence (Q9XUB2 whole entry): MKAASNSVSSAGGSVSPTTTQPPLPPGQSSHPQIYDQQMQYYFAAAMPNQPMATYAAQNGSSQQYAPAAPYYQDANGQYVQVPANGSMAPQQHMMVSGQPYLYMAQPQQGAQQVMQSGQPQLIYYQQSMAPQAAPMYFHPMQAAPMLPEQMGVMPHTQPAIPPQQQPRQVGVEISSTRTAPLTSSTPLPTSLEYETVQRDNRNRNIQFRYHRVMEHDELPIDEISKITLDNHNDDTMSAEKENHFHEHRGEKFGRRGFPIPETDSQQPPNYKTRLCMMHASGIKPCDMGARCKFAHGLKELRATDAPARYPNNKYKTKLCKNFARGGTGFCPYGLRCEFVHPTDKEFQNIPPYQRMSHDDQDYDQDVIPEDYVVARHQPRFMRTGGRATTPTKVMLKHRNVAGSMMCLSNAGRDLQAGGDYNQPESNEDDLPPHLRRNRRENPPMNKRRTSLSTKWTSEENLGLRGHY
Put plainly: potency of MEX-5 RNA-binding blockers – biochemical, C. elegans, fluorescence polarization, dose response (AID 1960).

In test [7] the target is Female germline-specific tumor suppressor gld-1 (Caenorhabditis elegans, UniProt Q17339). Put plainly: blockers of GLD-1/TGE RNA complex formation – biochemical, fluorescence polarization, C. elegans, dose response (AID 2802).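 Also: fluorescence polarization of labeled TGE RNA bound by purified gld-1 protein.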
Sequence of Female germline-specific tumor suppressor gld-1 (Q17339 whole entry): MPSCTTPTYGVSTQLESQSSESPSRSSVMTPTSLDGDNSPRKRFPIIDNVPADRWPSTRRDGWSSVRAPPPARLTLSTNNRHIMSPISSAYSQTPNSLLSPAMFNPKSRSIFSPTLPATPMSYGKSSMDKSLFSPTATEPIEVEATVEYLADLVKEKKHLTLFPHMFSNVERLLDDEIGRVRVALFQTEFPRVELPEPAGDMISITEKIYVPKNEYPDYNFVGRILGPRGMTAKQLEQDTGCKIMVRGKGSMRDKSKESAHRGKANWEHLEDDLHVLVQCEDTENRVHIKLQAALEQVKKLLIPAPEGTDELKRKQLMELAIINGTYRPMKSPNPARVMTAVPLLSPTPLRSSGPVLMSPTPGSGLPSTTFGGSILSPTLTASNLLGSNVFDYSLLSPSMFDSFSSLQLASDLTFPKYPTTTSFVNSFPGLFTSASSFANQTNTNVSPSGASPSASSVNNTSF
For another test, the target named is Protein Rev (Human immunodeficiency virus type 1 group M subtype B (isolate HXB2)(HIV-1), UniProt P04618). Put plainly: blockers of HIV Rev/RRE RNA complex – biochemical, fluorescence polarization, HIV-1, dose response (AID 434976). More on the design: species or system Human immunodeficiency virus 1.
Sequence of Protein Rev (P04618 whole entry): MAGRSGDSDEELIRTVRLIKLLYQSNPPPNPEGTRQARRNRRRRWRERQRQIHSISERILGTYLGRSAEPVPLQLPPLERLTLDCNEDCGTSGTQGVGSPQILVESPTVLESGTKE
The target in test [8] is T5, RNA-binding protein pos-1 (Caenorhabditis elegans, UniProt G5EF15).
T5 sequence (G5EF15 whole entry): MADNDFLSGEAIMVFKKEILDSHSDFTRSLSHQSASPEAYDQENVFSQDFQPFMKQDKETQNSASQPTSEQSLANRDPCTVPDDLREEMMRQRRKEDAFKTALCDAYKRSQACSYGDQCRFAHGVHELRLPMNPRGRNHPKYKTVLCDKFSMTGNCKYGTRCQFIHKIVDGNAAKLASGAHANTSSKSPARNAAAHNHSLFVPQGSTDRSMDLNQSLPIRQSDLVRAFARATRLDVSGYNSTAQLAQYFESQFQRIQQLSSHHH
In words: disruptors of C. elegans POS-1 RNA interaction – biochemical, fluorescence polarization, dose response (AID 1964).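 Also: purified POS-1 fused to maltose binding protein made in E. coli; potency of compounds blocking POS-1 binding to fluorescent RNA.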

A short description of test [9]: reduction of Shn3 3'UTR-driven luciferase in osteoblasts – cell-based, Clone20 osteoblasts, firefly luciferase, cherry-picked, dose response (AID 624132).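 Also: firefly luciferase luminescence from reporter carrying the Shn3 3'UTR in osteoblasts.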 It counts as functional.
Test [10] addresses T2, Mu-type opioid receptor. Put plainly: mu opioid receptor blockers – image-based, SAR follow-up (AID 2420).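 Also: compounds added before stimulation of receptor with agonist DAMGO.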 It counts as functional.
Test [11] deals with T1, Kappa-type opioid receptor. In words: kappa opioid receptor blockers, cell-based, luminescence, beta-arrestin, SAR follow-up (AID 2285). It counts as functional.
For test [12], the target named is T3, Delta-type opioid receptor. In words: DOR agonists, SAR follow-up, image-based (AID 2370). It counts as functional.
Test [13] concerns the target T1, Kappa-type opioid receptor. In words: kappa opioid receptor blockers, image-based, SAR follow-up (AID 2348). It counts as functional.
The target of test [14] is T1, Kappa-type opioid receptor. In words: kappa opioid receptor activation potency – imaging, image-based, SAR follow-up (AID 2359). It counts as functional.
Test [15] concerns the target T2, Mu-type opioid receptor. Put plainly: mu opioid receptor activators, image-based, SAR follow-up (AID 2352). It counts as functional.
The target of test [16] is T3, Delta-type opioid receptor. In words: delta opioid receptor blockers – image-based, SAR follow-up (AID 2357). It counts as functional.

Calls of active or inactive are those of the source.

T1 sequence (P41145 whole entry): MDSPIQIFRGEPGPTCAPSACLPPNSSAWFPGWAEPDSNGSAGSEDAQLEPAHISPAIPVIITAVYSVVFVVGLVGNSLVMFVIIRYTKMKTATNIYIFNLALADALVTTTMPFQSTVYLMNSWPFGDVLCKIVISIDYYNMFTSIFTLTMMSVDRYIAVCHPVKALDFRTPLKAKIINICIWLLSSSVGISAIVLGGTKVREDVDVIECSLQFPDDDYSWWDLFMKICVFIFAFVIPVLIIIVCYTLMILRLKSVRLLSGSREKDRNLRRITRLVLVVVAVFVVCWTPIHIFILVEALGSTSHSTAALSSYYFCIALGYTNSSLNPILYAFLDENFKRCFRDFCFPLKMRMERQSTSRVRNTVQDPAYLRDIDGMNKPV

For the compound `COc1ccc(CN(CCNC(=O)c2ccc(CNS(=O)(=O)c3ccccc3)cc2)C(C)C)cc1`, the concentration for half-maximal inhibition (IC50) was 5.58 µM (active) in [1], 14.3 µM (inactive) at Mu-type opioid receptor [2], > 32 µM (inactive) in test [3] and 1.79 µM (active) in test [4].

In the case of `CCOC(=O)Cn1c(=O)c(-c2cc(Br)ccc2N)nc2ccccc21`, the half-maximal activity concentration (AC50) in [5] is 0.833 µM (active); in [9], 0.758 µM (active). The EC50 was 26.1 µM (inconclusive) in test [6] and > 300 µM (inconclusive) in test [8]. Moreover, the IC50 in [7] was 25.4 µM (inactive); on Protein Rev, 4.53 µM (active).

As to `Cc1ccc(C)c(N2CCN(CCCNC(=O)Cn3c(=O)c4cccn4c4cccnc43)CC2)c1`, the IC50 is > 32 µM (inactive) at Mu-type opioid receptor [10], > 10 µM (inactive) in test [11], 20.5 µM (inactive) in test [13] and > 32 µM (inactive) in [16]. Moreover, the EC50 (in [12]; in [14]; on Mu-type opioid receptor [15]) was > 32 µM (inactive) each time.

These data come from ChEMBL document CHEMBL1201862, “PubChem BioAssay data set” (2004).
